# Source: US20240082433A1, “TUMOR RESECTION PROCESS AND COMPOSITION CONTAINING IRIDIUM-CONTAINING NUCLEOSIDE” (Cleveland State University, priority 2022, published 2024)
# Tests used:
# brain cancer cells (U87) [1] = assay: Uptake/fluorescence imaging in 3D and 2D U87 brain cancer cell culture; type: cell-based, human
# Description: To improve the imaging capabilities of this class of compound, additional analogs corresponding to Ir(III)-BZQ nucleoside and Ir(III)-PBO nucleoside (FIG. 5) were synthesized and tested for uptake using 3-dimensional cell culture techniques. […] Fluorescent microscopy was used to investigate the uptake of each nucleoside in which cells were treated with 1 μM of each compound for 24 hours. […] This conclusion is based on the more intense fluorescent signal observed in cells treated with Ir(III)-BZQ nucleoside that accurately defines the overall 3-dimensional shape of the cancerous mass. In particular, the overall intensity in green fluorescence caused by the uptake of Ir(III)-BZQ nucleoside is about 5 times greater than observed in cells treated with equivalent concentrations of Ir(III)-PPY nucleoside. […] While this represents an interesting phenomenon, this behavior precludes the ability of Ir(III)-PBO nucleoside to function as a “tumor margin” imaging agents since there is no defined outline of the cancerous mass.
# (§1) Fluorescent microscopy techniques were used to measure both red and green fluorescence associated with the cellular uptake of the analog over a three (3) day treatment period. […] The fluorescent signals are only observed in the 3D cancerous masses, thus making them easily identifiable at low magnification (10×).
# FIG. 10 compares fluorescence activity of Ir(III)-BZQ nucleoside with Indocyanine green at a fixed concentration of 10 μM. Images were taken comparing fluorescence emission in the red (600-700 nm) and green spectral range (500-600 nm) after 24 hours post-treatment.
# brain cancer cells (U87) [2] = assay: Cell-killing effects against 2D and 3D U87 brain cancer cells by microscopy; type: cell-based, human; details: for cell-killing / therapeutic activity: U87 3D masses and 2D cells, 10 μM
# Description: FIG. 7 illustrates the time-dependent uptake and cell-killing effects of Ir(III)-BZQ nucleoside (10 μM) against 2D and 3D brain cancer cells.
# as §1
# MDA-MB-453 = assay: Uptake/fluorescence in 3D TNBC model MDA-MB-453; type: cell-based
# Description: (§2) The theranostic activity of […] was also confirmed using 3D models of triple negative breast cancer (TNBC) (MDA-MB-453, MDA-MB-468, BT-549, MDA-MB-231). TNBC cells were chosen due to the poor prognosis caused by their aggressive nature and limited treatment options. 3D cancer cells were treated with 10 μM Ir(III)-BZQ nucleoside for 24 hours prior to microscopy analyses.
# Two (2) new Iridium-nucleosides designated Ir(III)-PPY-nucleoside (small, hydrophobic) and Ir(III)-PBO nucleoside (small, hydrophilic) were synthesized and tested as cancer imaging agents. FIG. 14 compares the imaging properties of these two analogs versus our lead agent, Ir(III)-BZQ nucleoside (small, hydrophobic). Experiments were performed treating MDA-MB-453 cells with 1 μM of each compound for 3 days. […] This phenomenon precludes its further development as a tumor margin imaging agent as it poorly defines the entire 3D mass as compared to Ir(III)-BZQ nucleoside and Ir(III)-PPY nucleoside.
# MDA-MB-468 = assay: Uptake/fluorescence in 3D TNBC model MDA-MB-468; type: cell-based; details: 3D MB-468, 10 μM, 24 hours
# Description: as §2
# BT-549 = assay: Uptake/fluorescence in 3D TNBC model BT-549; type: cell-based; details: 3D BT-549, 10 μM, 24 hours
# Description: as §2
# MDA-MB-231 = assay: Uptake/fluorescence in 3D TNBC model MDA-MB-231; type: cell-based; details: 3D MB-231, 10 μM, 24 hours
# Description: as §2
# [3] = tested on: MT1A2 cells (derived from PyMT); assay: Uptake/fluorescence in MT1A2 cells; type: cell-based; details: MT1A2, 10 μM, 24 hours
# normal fibroblasts [4] = assay: LD50 in 2D cell culture, normal fibroblasts; type: cell-based; details: 2D cell cultures
# Text: The therapeutic activity and selectivity of Ir(III)-BZQ nucleoside was confirmed by measuring LD50 values against MB-468 cells (high accumulation), MDA-MB-231 (low accumulation), and normal fibroblasts using 2D cell cultures (Table 1, below).
# MDA-MB-468 cells = assay: Dual parameter flow cytometry (Annexin V / propidium iodide) apoptosis; type: cell-based; details: MDA-MB-468, variable concentrations
# Text: Dual parameter flow cytometry employing Annexin V and propidium iodide staining was used to measure apoptosis in MDA-MB-468 cells treated with variable concentrations of Ir(III)-BZQ nucleoside. […] Microscopy imaging verifies an increase in green fluorescence caused by the accumulation of Ir(III)-BZQ nucleoside and correlates with the dose-dependent increase in apoptosis caused by the agent.
# [5] = tested on: cervical cancer cells (KB3-1 cell line); assay: Cellular uptake into KB3-1 cells by fluorescence microscopy; type: cell-based, human
# Description: FIG. 3 includes fluorescence microscopy images of the dose-dependent uptake of Ir(III)-PPY nucleoside in the human cancer cell line, KB3-1, particularly showing increased Ir(III)-PPY nucleoside (green) as a function of increasing concentration (Δt=4 hours).
# Several Iridium-containing nucleosides were synthesized and their imaging and anti-cancer activities were characterized. One non-limiting example of a compound is designated as Ir(III)-PPY nucleoside and shown in FIG. 2 next to deoxyadenosine. The synthetic design relies on the catalyzed [3+2] cycloaddition of azides to terminal alkynes. In this design, pyridyl triazoles covalently link the metal atom to the deoxyribose and this prevents metal dissociation from the complex. The cellular uptake of Ir(III)-PPY nucleoside into cervical cancer cells (KB3-1 cell line) was evaluated by treating cells with variable concentrations of Ir(III)-PPY nucleoside (0-50 μM). At times ranging from 4 to 24 hours, fluorescence microscopy images were taken using an excitation wavelength (λex) of 340 nm and an emission wavelength (λem) of 480 nm. […] The uptake of low concentrations (10 μM) of Ir(III)-PPY nucleoside can be visualized as early as 4 hours post treatment. […] Thus, the cellular uptake can be measured on short time scales (Δt<12 hours) without complications arising from effects on cell viability.
# [6] = tested on: cervical cancer cells (KB3-1 cell line); assay: Cytotoxic effects in KB3-1 cells; type: cell-based, human; details: KB3-1, after 24 hours
# Text: Several Iridium-containing nucleosides were synthesized and their imaging and anti-cancer activities were characterized. One non-limiting example of a compound is designated as Ir(III)-PPY nucleoside and shown in FIG. 2 next to deoxyadenosine. The synthetic design relies on the catalyzed [3+2] cycloaddition of azides to terminal alkynes. In this design, pyridyl triazoles covalently link the metal atom to the deoxyribose and this prevents metal dissociation from the complex. The cellular uptake of Ir(III)-PPY nucleoside into cervical cancer cells (KB3-1 cell line) was evaluated by treating cells with variable concentrations of Ir(III)-PPY nucleoside (0-50 μM). At times ranging from 4 to 24 hours, fluorescence microscopy images were taken using an excitation wavelength (λex) of 340 nm and an emission wavelength (λem) of 480 nm. […] The uptake of low concentrations (10 μM) of Ir(III)-PPY nucleoside can be visualized as early as 4 hours post treatment. Ir(III)-PPY nucleoside produces weak cytotoxic effects (IC50˜50 μM) after 24 hours. Thus, the cellular uptake can be measured on short time scales (Δt<12 hours) without complications arising from effects on cell viability.
# [7] = tested on: human brain cancer cell line, U87, that expresses red fluorescent protein (RFP); assay: Selective uptake in co-culture, RFP-U87 cells, fluorescent microscopy; type: cell-based; details: RFP-U87 co-cultured with normal fibroblasts, 10 μM, 4 hours
# Text: FIG. 4 includes microscopy images showing co-localization of Ir(III)-PPY nucleoside in glioblastoma cells expressing red-fluorescent protein (RFP-U87).
# (§3) Fluorescent microscopy was then used to validate that the uptake of Ir(III)-PPY nucleoside is selective for cancer cells. FIG. 4 compares the uptake of Ir(III)-PPY nucleoside using a human brain cancer cell line, U87, that expresses red fluorescent protein (RFP) versus normal fibroblasts. In these experiments, RFP-U87 cells were co-cultured with normal fibroblasts overnight and then treated with 10 μM Ir(III)-PPY nucleoside for 4 hours. […] Similar results were obtained at longer time intervals encompassing 24 hours incubation with Ir(III)-PPY nucleoside (data not shown).
# normal fibroblasts [8] = assay: Selective uptake in co-culture, normal fibroblasts, fluorescent microscopy; type: cell-based; details: co-cultured with RFP-U87, 10 μM, 4 hours
# Description: as §3
# [9] = U87, 10 μM, three days vs 1 day
compound,measurement,setting,value
"CC1(C)C(/C=C/C=C/C=C/C=C2\N(CCCCS(=O)(=O)O)c3ccc4ccccc4c3C2(C)C)=[N+](CCCCS(=O)(=O)[O-])c2ccc3ccccc3c21 [Indocyanine green, reference compound]","fluorescence emission in the red spectral range (600-700 nm), direct comparison","brain cancer cells (U87) [1]; 10 μM, 24 hours post-treatment",superior fluorescence emission activity
same,red fluorescence in U87 cells,"brain cancer cells (U87) [1]; 1 and 10 μM, after 24 hours, 10× magnification",dose-and time dependent increase in red fluorescence
same,fluorescence emission activity in the red spectral range (600-700 nm) relative to Ir(III) BZQ nucleoside,"brain cancer cells (U87) [1]; U87, identical concentrations (1 and 10 μM), 24 hours",~5 times
same,cell-killing / therapeutic activity,brain cancer cells (U87) [2]; 1 to 3 days treatment,no detectable therapeutic activity
same,overall size of the 3D masses,"brain cancer cells (U87) [2]; U87, 10 μM, 1 to 3 days treatment",increases as a function of time
F[P-](F)(F)(F)(F)F.OCC1OC(n2cc(-c3ccccn3)nn2)CC1O.c1cnc2c(c1)ccc1ccc[c]([Ir][c]3cccc4ccc5cccnc5c34)c12 [Ir(III)-BZQ nucleoside],"fluorescence emission in the green spectral range (500-600 nm), direct comparison","brain cancer cells (U87) [1]; 10 μM, 24 hours post-treatment",superior fluorescence emission
same,imaging activity amongst the three compounds tested,"brain cancer cells (U87) [1]; U87 3D masses, 1 μM, 24 hours",superior activity
same,red fluorescence,"brain cancer cells (U87) [1]; U87 3D masses, 1 μM, 24 hours",display red fluorescence
same,overall intensity in green fluorescence relative to Ir(III)-PPY nucleoside,"brain cancer cells (U87) [1]; U87 3D masses, 1 μM, 24 hours, equivalent concentrations",about 5 times
same,fluorescence signal in 2D cells,"brain cancer cells (U87) [1]; U87, 10 μM, 10× magnification",Little to no fluorescence signal
same,fluorescence signals in 3D cancerous masses,"brain cancer cells (U87) [1]; U87, 10 μM, after 1 day, 10× magnification",intense red and green fluorescence signals
same,fluorescence signals in 3D masses,"brain cancer cells (U87) [1]; U87, 10 μM, after three days",still show intense fluorescence signals
same,cell-killing / therapeutic activity,brain cancer cells (U87) [2]; 1 to 3 days treatment,possesses cell-killing activity
same,cell-killing effect on 2D cells,brain cancer cells (U87) [2]; [9],reduction in the number of 2D cells
same,cell-killing effect on 3D masses,brain cancer cells (U87) [2]; [9],death of cells that reside at the outer fringe of the cancerous mass
same,fluorescence signals (uptake and accumulation),"MDA-MB-453; 3D MB-453, 10 μM, 24 hours",high fluorescence signals
same,fluorescence intensity compared to Ir(III)-PPY nucleoside and Ir(III)-PBO nucleoside,"MDA-MB-453; MDA-MB-453, 1 μM, 3 days",~5 fold
same,imaging activity among the three compounds,"MDA-MB-453; MDA-MB-453, 1 μM, 3 days",superior activity
same,fluorescence signals (uptake and accumulation),MDA-MB-468,high fluorescence signals
same,fluorescence signals (uptake and accumulation),BT-549,weak fluorescence
same,fluorescence signals (uptake and accumulation),MDA-MB-231,weak fluorescence
same,fluorescence signals (uptake and accumulation),[3],no fluorescence signals
same,cytotoxic effects (LD50),normal fibroblasts [4],minimal cytotoxic effects
same,apoptosis,MDA-MB-468 cells,increase in both early- and late-stage apoptosis
same,necrotic cell death,MDA-MB-468 cells,without causing necrotic cell death
F[P-](F)(F)(F)(F)F.OCC1OC(n2cc(-c3ccccn3)nn2)CC1O.c1ccc(-c2cccc[c]2[Ir][c]2ccccc2-c2ccccn2)nc1 [Ir(III)-PPY nucleoside],intracellular accumulation (green fluorescence),"[5]; KB3-1, 0-50 μM, 4 to 24 hours, λex 340 nm, λem 480 nm",dose-dependent
same,time post treatment at which uptake can be visualized,"[5]; KB3-1, 10 μM",≤ 4 h
same,IC50,[6],~50 µM
same,uptake in U87 cancer cells,[7],rapidly accumulates
same,uptake in normal fibroblasts,normal fibroblasts [8],no uptake
same,red fluorescence,"brain cancer cells (U87) [1]; U87 3D masses, 1 μM, 24 hours",not observed
F[P-](F)(F)(F)(F)F.OCC1OC(n2cc(-c3ccccn3)nn2)CC1O.c1ccc(-c2ncco2)[c]([Ir][c]2ccccc2-c2ncco2)c1 [Ir(III)-PBO nucleoside],fluorescence pattern in cells,"brain cancer cells (U87) [1]; U87 3D masses, 1 μM, 24 hours",unique punctates
same,red fluorescence,"brain cancer cells (U87) [1]; U87 3D masses, 1 μM, 24 hours",not observed
same,fluorescence pattern in cells,"MDA-MB-453; MDA-MB-453, 1 μM, 3 days",unique punctates
